One may read the IC50 as the concentration needed to halve the response being measured.

The test system of the assay is Leishmania major. In words: Antileishmanial activity against promastigotes of Leishmania major after 72 hrs by Neubauer counting chamber-based microscopic analysis. Format: functional, organism-based.

For the compound `COc1ccccc1C(=O)N/N=C/c1ccccn1`, the half-inhibitory concentration (IC50) turned out to be 60 µM. This lies in the double-digit micromolar range.

For the compound `COc1ccccc1C(=O)N/N=C/c1ccncc1`, the 50% inhibitory concentration (IC50) worked out at 75.9 µM.

For `COC(=O)c1ccc(/C=N/NC(=O)c2ccccc2OC)cc1`, the IC50 was 15.7 µM. This IC50 is about 4.8-fold lower than that of the compound before.

With `COc1ccccc1C(=O)N/N=C/c1ccc(Br)c(F)c1`, half-maximal inhibition (IC50) was put at 77.4 µM.

`COc1ccccc1C(=O)N/N=C/c1cc(O)c(O)c(O)c1` showed an IC50 of 31.5 µM. This IC50 is about 2.5-fold lower than that of the compound before.

On to `COc1ccccc1C(=O)N/N=C/c1ccc(O)c(O)c1`, for which the IC50 turned out to be 3.29 µM.

Take `COc1ccc(/C=N/NC(=O)c2ccccc2OC)cc1Br`: the half-maximal inhibitory concentration (IC50) came out at 7.64 µM.

With `COc1ccc(/C=N/NC(=O)c2ccccc2OC)cc1OC`, the concentration for half-maximal inhibition (IC50) came out at 13.2 µM. Against the preceding compound, the IC50 is about 1.7-fold higher.

In the case of `COc1ccc(/C=N/NC(=O)c2ccccc2OC)cc1`, the half-inhibitory concentration (IC50) came out at 40.1 µM.

The compound `COc1ccccc1C(=O)N/N=C/c1cccnc1` came in with an IC50 of 1.95 µM.

As for `COc1ccccc1C(=O)N/N=C/c1cccs1`, inhibition was half-maximal at 2.49 µM (IC50).

With `COc1ccccc1C(=O)N/N=C/c1ccc([N+](=O)[O-])cc1`, the half-maximal inhibitory concentration (IC50) amounted to 31.6 µM.

In the case of `COc1ccccc1C(=O)N/N=C/c1ccc(Cl)cc1`, 68.5 µM corresponded to half-maximal inhibition (IC50). Against the preceding compound, the IC50 is about 2.2-fold higher.

In turn, `COc1ccccc1C(=O)N/N=C/c1cccc(O)c1O` yielded a 50% inhibitory concentration (IC50) of 68 µM.

`COc1ccccc1C(=O)N/N=C/c1cc(O)ccc1O` gave a half-maximal inhibitory concentration (IC50) of 34.9 µM.

Turning to `COc1ccccc1C(=O)N/N=C/c1ccc(O)cc1O`, the IC50 was found to be 88.6 µM. Against the preceding compound, the IC50 is about 2.5-fold higher.

As for `COc1ccccc1C(=O)N/N=C/c1ccc(O)cc1`, the midpoint of inhibition, the IC50, lay at 57.4 µM.

Regarding `COc1ccc(/C=N/NC(=O)c2ccccc2OC)c(O)c1`, half-maximal inhibition (IC50) required 13.2 µM.

In turn, `COc1ccc(/C=N/NC(=O)c2ccccc2OC)cc1O` registered a half-inhibitory concentration (IC50) of 45.7 µM. This IC50 is about 3.5-fold higher than that of the compound before.

In turn, `COc1ccccc1C(=O)N/N=C/c1ccc(OC)c(O)c1I` returned an IC50 of 63.4 µM. This IC50 and that of the compound before are within 1.5-fold of each other.

For `COc1cc(/C=N/NC(=O)c2ccccc2OC)cc(OC)c1`, the IC50 came out at 53.1 µM.

Regarding `N=C(N)c1ccc(OCCCCCOc2ccc(C(=N)N)cc2)cc1` [PENTAMIDINE], half-maximal inhibition (IC50) required 5.09 µM. This IC50 lies about 10-fold lower than the previous one.

Source of the values: ChEMBL document CHEMBL2380304, “Synthesis of 2-methoxybenzoylhydrazone and evaluation of their antileishmanial activity” (Bioorg Med Chem Lett, 2013).
